Experimental data published in ChEMBL document CHEMBL4651402, “Screening of ~5500 FDA-approved drugs and clinical candidates for anti-SARS-CoV-2 activity” (2021).
Square brackets hold non-standard residues; d marks the D form. Peptide text beside a SMILES is read from it. pGlu = O=C1CC[C@@H](C(=O)O)N1; Thz = O=C(O)[C@@H]1CSCN1

Tested on: SARS-CoV-2
Assay: microbe, parasite or virus in culture
Conditions: Severe acute respiratory syndrome coronavirus 2, Vero C1008, 48 h

SMILES | IC50 | IC50 (read-out: pIC50 (converted))
NCC(=O)O [GLYCINE] | > 20 µM | > 20 µM
CC1(C)C[C@@H]1C(=O)N/C(=C\CCCCSC[C@H](N)C(=O)O)C(=O)O [CILASTATIN] | > 20 µM | > 20 µM
CC(=O)SCCC(=O)N1C(C)CCCC1C(=O)O (stereo not given) | > 20 µM | > 20 µM
COC(=O)C[C@](O)(CCCC(C)(C)O)C(=O)O[C@@H]1C(OC)=C[C@]23CCCN2CCc2cc4c(cc2[C@H]13)OCO4 [OMACETAXINE MEPESUCCINATE] | > 20 µM | > 20 µM
CN1CCN(c2c(F)cc3c(=O)c(C(=O)O)cn4c3c2OCN4C)CC1 [MARBOFLOXACIN] | > 20 µM | > 20 µM
Cc1ccc(NC2=NCCN2)c(Cl)c1 [TOLONIDINE] | > 20 µM | > 20 µM
C[C@H]1CN([C@H]2CC[C@](C#N)(c3ccc(F)cc3)CC2)CC[C@@]1(C(=O)O)c1ccccc1 | > 20 µM | > 20 µM
N#CCC1CCN(c2nc(Nc3ccc(N4CCC(O)CC4)cc3)c3c(=O)[nH]ncc3n2)CC1 [GUSACITINIB] | > 20 µM | > 20 µM
O=C(/C=C/c1cccc(S(=O)(=O)Nc2ccccc2)c1)NO [BELINOSTAT] | > 20 µM | > 20 µM
O=C1CC[C@@H](C(=O)N2CSC[C@H]2C(=O)O)N1 [PIDOTIMOD] ([pGlu]-[Thz]-OH) | > 20 µM | > 20 µM
COC(=O)[C@H]1[C@@H](OC(=O)c2ccccc2)C[C@@H]2CC[C@H]1N2C [COCAINE] | > 20 µM | > 20 µM
C[C@@H]1C\C=C/C=C\C=C/C=C\[C@H](O[C@@H]2O[C@H](C)[C@@H](O)[C@H](N)[C@@H]2O)C[C@@H]2O[C@](O)(C[C@@H](O)C[C@H]3O[C@@H]3/C=C\C(=O)O1)C[C@H](O)[C@H]2C(=O)O | > 20 µM | > 20 µM
O=C(O)CNC(=O)C1C(=O)N(C2CCCCC2)C(=O)N(C2CCCCC2)C1=O [DAPRODUSTAT] | > 20 µM | > 20 µM
O=C(CC(c1ccccc1)c1ccccc1)N1CCN(C(c2ccccc2)c2ccccc2)CC1 [Z160] | > 20 µM | > 20 µM
CC(Cc1ccccc1)NN (stereo not given) [PHENIPRAZINE] | > 20 µM | > 20 µM
O=C1CN2Cc3c(ccc(Cl)c3Cl)N=C2N1 [ANAGRELIDE] | > 20 µM | > 20 µM
CCCNC(=O)NS(=O)(=O)c1ccc(Cl)cc1 [CHLORPROPAMIDE] | > 20 µM | > 20 µM
COc1cc2c(cc1OC)C(=O)C(CC1CCN(Cc3ccccc3)CC1)C2 (stereo not given) [DONEPEZIL] | > 20 µM | > 20 µM

SMILES | IC50 | IC50 (read-out: pIC50 (converted))
NC(=O)c1nnn(Cc2cc(Cl)c(C(=O)c3ccc(Cl)cc3)c(Cl)c2)c1N [CARBOXYAMIDOTRIAZOLE] | > 20 µM | > 20 µM
CC(C)(C)c1ccc(CSc2cnn(C(C)(C)C)c(=O)c2Cl)cc1 [PYRIDABEN] | > 20 µM | > 20 µM
CC1CC(OC(=O)C(O)c2ccccc2)CC(C)(C)N1C (stereo not given) [EUCATROPINE] | > 20 µM | > 20 µM
NC1CC1c1ccccc1 (stereo not given) | > 20 µM | > 20 µM
CC(=O)OC1C([N+]2(C)CCCCC2)CC2C3CC[C@H]4C[C@H](OC(C)=O)C([N+]5(C)CCCCC5)CC4(C)C3CCC21C (stereo not given in full) | > 20 µM | > 20 µM
COc1ccc(Cl)cc1C(=O)NCCc1ccc(S(=O)(=O)NC(=O)NC2CCCCC2)cc1 [GLYBURIDE] | > 20 µM | > 20 µM
COc1c2c(cc3c1OCO3)CCN(C)C2 [HYDROCOTARNINE] | > 20 µM | > 20 µM
CC(=O)OCC(CCn1cnc2cnc(N)nc21)COC(C)=O [FAMCICLOVIR] | > 20 µM | > 20 µM
COc1c(N2CCNC(C)C2)c(F)cc2c(=O)c(C(=O)O)cn(C3CC3)c12 (stereo not given) [GATIFLOXACIN] | > 20 µM | > 20 µM
Cc1nc(COc2ccc(C[C@H](NC(=O)O[C@H]3CO[C@H]4OCC[C@H]43)[C@H](O)CN(CC(C)C)S(=O)(=O)c3ccc4c(c3)OCO4)cc2)cs1 [BRECANAVIR] | > 20 µM | > 20 µM
CCCN(CCC)CCc1ccc(O)c(O)c1 | > 20 µM | > 20 µM
O=C1CN(/N=C/c2ccc([N+](=O)[O-])o2)C(=O)N1 [NITROFURANTOIN] | > 20 µM | > 20 µM
N[C@@H](CS)C(=O)O [CYSTEINE] | > 20 µM | > 20 µM
NC(=O)C1(N2CCCCC2)CCN(CCCN2c3ccccc3CCc3ccc(Cl)cc32)CC1 [CLOCAPRAMINE] | > 20 µM | > 20 µM
CNC(=O)c1ccc(-c2cnc3ncc(Cc4ccc5ncccc5c4)n3n2)cc1F [CAPMATINIB] | > 20 µM | > 20 µM
CCCC(C)(COC(N)=O)COC(=O)NC(C)C (stereo not given) [CARISOPRODOL] | > 20 µM | > 20 µM
COC(=O)[C@@H](N)CCCNC(=N)N[N+](=O)[O-] | > 20 µM | > 20 µM
